Consider 1 sequence from article PMC4827351 (Chemical Science, 2015).

The test system of the experiment is L. monocytogenes ATCC 19115. Description: Cuvette-based bacterial agglutination assay. It is filed as cell-based, Listeria monocytogenes. As to conditions: n = 3. The source says:
We previously reported a simple cuvette-based in vitro agglutination assay that enables time-dependent monitoring of agglutination of viable bacteria by HD6.[15] We employed this assay to further characterize the trypsin-dependent activity of proHD6 on cultured bacterial cells (Fig. 4a and b). […] In these assays, we defined the “supernatant” as the culture solution in the top portion of the cuvette and the “re-suspension” as the mixture that results from agitating the entire culture after the 6 h incubation period.[15] We observed an ≈1.5-fold log reduction in CFU mL^–1 for the “supernatant” from cultures treated with combination of trypsin and proHD6 relative to the no-peptide control (Fig. 4c). Following “re-suspension”, the total CFU mL^–1 in the cuvette was indistinguishable from that of either the untreated control culture or the bacterial culture treated with proHD6.
Fig. 4 Bacterial agglutination assays for native and cleaved proHD6. (a) Agglutination of E. coli ATCC 25922 and L. monocytogenes ATCC 19115 in 50% MHB treated with proHD6 in the absence and presence of 0.4 μM trypsin or HD6 (control). (b) Representative images of cuvettes containing E. coli ATCC 25922 or L. monocytogenes ATCC 19115 after incubation with 20 μM peptides for 2 h at room temperature. (c) Plots of colony forming units (CFU mL^–1) of E. coli ATCC 25922 and L. monocytogenes ATCC 19115 after treatment with 20 μM peptides for 6 h (mean ± SDM, n = 3). Supernatant is defined as the clarified medium solution in the top portion of the culture and resuspension is defined as the mixture after thoroughly agitating the heterogeneous solution.
Stock solutions (50 μL) of HD6 and proHD6 (0, 50, 100, and 200 μM; 10× concentrations) were prepared in sterile Milli-Q water. If trypsin was required, aliquots of a 1 mg mL^–1 stock solution of TPCK-treated trypsin (Worthington) prepared in sterile Milli-Q water were added to solutions of proHD6 to afford a final trypsin concentration of 0.01 mg mL^–1. The assays were then conducted following the reported procedure.[15] […]

“EPLQAEDDPLQAKAYEADAQEQRGANDQDFAVSFAEDASSSLRALGSTRAFTCHCRRSCYSTEYSYGTCTVMGINHRFCCL (disulfide (positions not given here)) [proHD6, 81-residue propeptide of human α-defensin 6, recombinant, from His6-SUMO-proHD6]”: the “total CFU mL^-1 after re-suspension versus untreated control culture or culture treated with proHD6” value (20 µM proHD6 + trypsin, 6 h, entire culture agitated) is “indistinguishable”. The “agglutination of bacterial culture in cuvette, with trypsin” value (proHD6 + 0.4 µM (0.01 mg/mL) trypsin, 10^8 CFU mL^-1, 50% MHB, room temperature) is “bacterial agglutination and sedimentation occurred”. Moreover, the “agglutination of bacterial culture in cuvette” value (proHD6 up to 20 µM, no trypsin, 10^8 CFU mL^-1, 50% MHB, 6 h, room temperature) is on record as “remained homogeneous”.
